From EP4454666A1, “IN VIVO IMAGING OF AN ALS BIOMARKER AND MEANS THEREFOR” (Société de Commercialisation des Produits de la Recherche …, priority 2023, dated 2024)
Values belong to the molecule of their own block, whether it stands above or below them.

Tests used:
mSOD1 aggregates = assay: PET imaging of spinal cord mSOD1 aggregates (spots); assay type: in vivo, mice
Experimental: Under isoflurane anesthesia. […] Imaging days post administration of the radiotracer were optimized as the first results were collected the last groups being imaged only at days 7 and 10. Once the radiotracer administrated, the mouse was placed in its cage to recuperate from anesthesia and returned to the housing facility.
PET imaging was performed on days 7 and 10 following the administration of the radiotracer. Imaging was done on a LabPET-2 PET scanner (https://imagingrt.com/. Bore size: 72 mm. Axial FOV: 50 mm. Transaxial FOV: 60 mm. Spatial resolution: 0.74 mm (Isotropic at 5 mm from center). Detection efficiency (250-650 keV): 3.3% dedicated to small animal imaging. Preparation and PET imaging was done under isoflurane anesthesia delivered through a nose cone (Induction 2-3% isoflurane then 1 - 2.5%. 1-1.5 L of oxygen/min) the level of anesthesia being modulated if required during PET imaging. An ophthalmic gel was applied to the eyes to prevent eye dryness. The mouse was positioned within the field of view of the PET imager and a 30 min static acquisition was performed then the bed of the imager was moved within the CT module of the LabPET8 scanner, and a 2 min CT acquisition was performed. During PET imaging, the mouse was kept warm using pulsed hot air maintained at 32 °C, the environment temperature and respiration rate being monitored throughout the imaging procedure (PCSAM. Model 1025T Monitoring & Gating System, SA Instruments Inc.). Once the imaging procedure was completed, the mouse was placed in its cage to recuperate from anesthesia and returned to the housing facility.
PET data were acquired in list mode and reconstructed on a 200 x 200 x 168 grid with 0.3 x 0.3 x 0.3 mm^3 voxel size using 16 iterations and 8 subset of the 3D Ordered Subset Expectation Maximization (OSEM) algorithm. All PET images were corrected for the physical radionuclide decay of ^89Zr and random coincidences. […]
Once reconstructed the PET images were visually inspected to identify potential mSOD1 aggregates, which appear as discrete radiotracer spots within the spinal cord. […] The criteria for validity were that the spot was well defined within the spinal cord and not contaminated by radioactivity spilled in form the presence of the radiotracer in the anterior portion of the vertebra. […]
Once located region of interest (ROI) was then traced around these spots and the measure radiotracer content corrected for the partial volume effect (PVE) using the recovery coefficient and for spill-in from the presence of free ^89Zr in the anterior part of the vertebra (Fig. 4). […] The radioactivity content of m-SOD1 aggregated was expressed in terms of %ID/g.

denatured human SOD1 [1] = target: T1, denatured human SOD1 (human, UniProt P00441 2-154); assay: direct ELISA on denatured human SOD1 (Fig. 6A)
T1 construct: also called misfolded SOD1; mSOD1
T1 sequence (P00441 2-154 limits assumed): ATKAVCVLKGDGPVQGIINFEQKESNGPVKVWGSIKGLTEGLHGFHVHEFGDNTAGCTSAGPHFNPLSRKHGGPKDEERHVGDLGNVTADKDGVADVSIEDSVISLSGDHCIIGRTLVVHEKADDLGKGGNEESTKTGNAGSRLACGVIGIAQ

denatured human SOD1 [2] = target: T1, denatured human SOD1; assay: direct ELISA on denatured human SOD1 (mSOD1)
denatured human SOD1 [3] = target: T1, denatured human SOD1; assay: ELISA on misfolded SOD1 (refers to Fig. 6)

EC50 (denatured human SOD1 [1]): 0.2 nM
B1: AP-101 (antibody, V domains shown)
VH: EVQLVESGAEVKKPGASVTLSCKASGYTFTAYYIHWVRQAREQGLEWMGVINPSTGTTFYAQNFPDRVSVTRDTSTSTVFMELHNLKSEDTAVYYCARAISEHGSGSYSPYYWGQGTLVTVSS
VL: SYVLTQPPSVSVSLGQMAAITCSGEALPKKYGYWYQQKPGQVPVLLIYRDVERPSGVPDRFSGSSSGTMVTLTISGVQAEDEADYYCLSADSSGTWVFGGGTKLTVL

EC50 (denatured human SOD1 [2]): 2.4 nM
B2: Degly-^natZr-DFO-AP-101 (antibody, human IgG1, V domains shown)
VH: B1 VH
VL: B1 VL
modifications: DFO chelator conjugated randomly on lysine residues; Fc N-glycans removed with EndoS2 (GlycINATOR); DFO chelator on lysine residues, average 0.6 DFO per antibody; natZr complexed

EC50 (denatured human SOD1 [2]): 0.3 nM
EC50 (denatured human SOD1 [3]): 0.5 nM
B3: ^natZr-DFO-AP-101 (antibody, human IgG1, V domains shown)
VH: B1 VH
VL: B1 VL
modifications: p-SCN-Bn desferoxamine (DFO) chelator conjugated randomly on lysine residues; p-SCN-Bn desferoxamine (DFO) chelator conjugated randomly on lysine residues, DFO:AP-101 ratio 1.1:1.0; natZr complexed
notes: also called DFO-α-miSOD1

Continued, molecule first:

Molecule: Degly-^89Zr-DFO-AP-101: ^89Zr-DFO-AP-101 in which the AP-101 antibody is deglycosylated
number of detected spots including false positive spots (mSOD1 aggregates; day 7 post administration): 6 spots
number of detected spots including false positive spots (mSOD1 aggregates; day 10 post administration): 12 spots

Molecule: ^89Zr-DFO-AP-101: AP-101 antibody, SCN-Bn-DFO as bifunctional chelator and ^89Zr as radionuclide; PET radiotracer
number of detected spots including false positive spots (mSOD1 aggregates; day 7 post administration): 6 spots
number of detected spots including false positive spots (mSOD1 aggregates; day 10 post administration): 18 spots
